How the values were obtained:
MM1S = experiment: In vitro anti-proliferation assay (ATPlite luminescence); type: cell-based; settings: Homo sapiens, MM1.S, 72 hours, 5% FBS, read-out: IC50 cell anti-proliferative assay MM1S
Protocol: (§1) Cell antiproliferation was assayed by PerkinElmer ATPlite™ Luminescence Assay System. The cancer cell lines were plated at 10 k cells per well in Costar 96-well plates with different concentration of compounds for 72 hours with 5% FBS. After that, one lyophilized substrate solution vial was reconstituted by adding 5 mL of substrate buffer solution and was agitated gently until the solution is homogeneous. 50 μL of mammalian cell lysis solution was added to 100 μL of cell suspension per well of a microplate and the plate was shaken for five minutes in an orbital shaker at 700 rpm. This procedure will lyses the cells and stabilizes the ATP. Next, 50 μL substrate solution was added to the wells and microplate was shaken for five minutes in an orbital shaker at 700 rpm. Finally the luminescence was measured by a PerkinElmer TopCount® Microplate Scintillation Counter. Such assays, carried out with a range of doses of test compounds, allow the determination of an approximate IC50 value for the in vitro cell antiproliferation assay of cancer cell lines.

RPMI8226 = experiment: as above; type: cell-based; settings: Homo sapiens, RPMI-8226; RPMI8226, 72 hours, 5% FBS; read-out: IC50 cell anti-proliferative assay RPMI8226
Protocol: as §1

MM1R = experiment: as above; type: cell-based; settings: MM.1R, 72 hours, 5% FBS, read-out: IC50 cell anti-proliferative assay MM1R
Protocol: as §1

HDAC-2 = HDAC-2 (Homo sapiens (Human), UniProt Q92769); experiment: biochemical; type: biochemical
Sequence of HDAC-2 (Q92769 whole entry, species assumed): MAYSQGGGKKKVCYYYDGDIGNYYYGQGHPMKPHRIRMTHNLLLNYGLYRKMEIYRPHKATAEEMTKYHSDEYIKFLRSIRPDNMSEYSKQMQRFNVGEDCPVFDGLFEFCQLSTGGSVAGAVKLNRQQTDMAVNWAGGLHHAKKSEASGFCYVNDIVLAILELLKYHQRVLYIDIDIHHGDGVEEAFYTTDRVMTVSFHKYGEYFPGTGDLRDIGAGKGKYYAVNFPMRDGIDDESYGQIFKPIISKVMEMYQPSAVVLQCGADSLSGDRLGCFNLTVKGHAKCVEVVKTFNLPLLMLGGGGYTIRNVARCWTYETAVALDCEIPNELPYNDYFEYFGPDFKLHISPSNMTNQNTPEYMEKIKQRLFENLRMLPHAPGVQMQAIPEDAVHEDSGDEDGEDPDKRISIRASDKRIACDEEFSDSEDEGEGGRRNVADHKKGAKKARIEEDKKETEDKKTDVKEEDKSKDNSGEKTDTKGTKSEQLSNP
Protocol: (§2) Hydroxamic acid is a well know metal-chelating agent, especially for Zn atom. […] Many of these metalloenzymes are well known important disease target, such as HDAC and MMP. […] The following protocol is used to assay the compounds of the invention against the HDAC enzymes.
(§3) The enzyme stock solution is 4 μg/mL in buffer. The compounds are pre-incubated (2 μl in DMSO diluted to 13 μl in buffer for transfer to assay plate) with enzyme (20 μl of 4 μg/ml) for 10 minutes at room temperature (35 μl pre-incubation volume). The mixture is pre-incubated for 5 minutes at room temperature. The reaction is started by bringing the temperature to 37° C. and adding […] substrate. Total reaction volume is 50 μl. […] Such assays, carried out with a range of doses of test compounds, allow the determination of an approximate IC50 value.

HDAC-3 = HDAC-3 (Homo sapiens (Human), UniProt O15379); experiment: Inhibition of histone deacetylase enzymatic activity (Fluor-de-Lys); type: biochemical
Protocol: as §2, §3

HDAC-10 = HDAC-10 (Homo sapiens (Human), UniProt Q969S8); experiment: as above; type: biochemical
Sequence of HDAC-10 (Q969S8 whole entry, species assumed): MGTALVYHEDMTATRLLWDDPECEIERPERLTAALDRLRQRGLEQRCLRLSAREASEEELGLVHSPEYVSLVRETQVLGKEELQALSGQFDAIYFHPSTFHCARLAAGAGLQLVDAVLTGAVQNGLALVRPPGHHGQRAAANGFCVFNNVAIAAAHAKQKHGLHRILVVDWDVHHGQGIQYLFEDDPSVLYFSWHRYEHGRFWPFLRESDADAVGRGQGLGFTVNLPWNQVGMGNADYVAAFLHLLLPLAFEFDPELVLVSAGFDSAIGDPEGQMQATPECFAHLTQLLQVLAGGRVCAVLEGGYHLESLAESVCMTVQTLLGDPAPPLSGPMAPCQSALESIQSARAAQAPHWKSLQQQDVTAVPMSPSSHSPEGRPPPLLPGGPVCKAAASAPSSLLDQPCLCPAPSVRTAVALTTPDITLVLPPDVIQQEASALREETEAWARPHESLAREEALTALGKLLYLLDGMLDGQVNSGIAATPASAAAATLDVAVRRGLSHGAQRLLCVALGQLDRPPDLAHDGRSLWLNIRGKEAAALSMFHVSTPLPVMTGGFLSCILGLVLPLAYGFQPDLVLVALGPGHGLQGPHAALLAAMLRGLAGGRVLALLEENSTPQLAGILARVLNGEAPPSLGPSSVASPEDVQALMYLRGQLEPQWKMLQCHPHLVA
Protocol: as §2, §3

HDAC-1 = HDAC-1 (Homo sapiens (Human), UniProt Q13547); experiment: as above; type: biochemical
Sequence of HDAC-1 (Q13547 whole entry, species assumed): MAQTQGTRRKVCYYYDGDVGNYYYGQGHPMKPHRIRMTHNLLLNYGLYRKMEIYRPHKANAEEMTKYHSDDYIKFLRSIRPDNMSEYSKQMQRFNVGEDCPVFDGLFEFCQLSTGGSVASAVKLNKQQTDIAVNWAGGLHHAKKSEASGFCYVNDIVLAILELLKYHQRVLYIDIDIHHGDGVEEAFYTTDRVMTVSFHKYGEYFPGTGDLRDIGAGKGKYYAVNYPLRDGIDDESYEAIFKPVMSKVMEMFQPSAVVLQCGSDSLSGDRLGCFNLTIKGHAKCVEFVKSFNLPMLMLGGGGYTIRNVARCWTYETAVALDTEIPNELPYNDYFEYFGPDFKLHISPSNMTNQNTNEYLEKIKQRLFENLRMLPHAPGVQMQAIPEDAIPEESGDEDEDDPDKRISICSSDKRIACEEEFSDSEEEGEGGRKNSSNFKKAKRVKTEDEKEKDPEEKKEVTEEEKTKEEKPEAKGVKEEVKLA
Protocol: as §2, §3

HDAC-8 = HDAC-8 (Homo sapiens (Human), UniProt Q9BY41); experiment: as above; type: biochemical
Sequence of HDAC-8 (Q9BY41 whole entry, species assumed): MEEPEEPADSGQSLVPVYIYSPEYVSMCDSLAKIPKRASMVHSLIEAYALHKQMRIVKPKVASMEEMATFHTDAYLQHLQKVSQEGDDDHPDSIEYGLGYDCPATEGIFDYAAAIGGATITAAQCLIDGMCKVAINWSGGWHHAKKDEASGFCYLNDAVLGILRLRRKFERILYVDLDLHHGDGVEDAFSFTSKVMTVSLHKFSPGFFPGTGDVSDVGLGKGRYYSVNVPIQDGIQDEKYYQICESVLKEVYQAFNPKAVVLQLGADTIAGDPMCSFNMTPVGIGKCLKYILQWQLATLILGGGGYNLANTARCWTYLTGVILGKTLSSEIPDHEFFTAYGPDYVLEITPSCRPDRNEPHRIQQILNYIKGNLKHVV
Protocol: as §2, §3

HDAC-6 = HDAC-6 (Homo sapiens (Human), UniProt Q9UBN7); experiment: as above; type: biochemical
Sequence of HDAC-6 (Q9UBN7 whole entry, species assumed): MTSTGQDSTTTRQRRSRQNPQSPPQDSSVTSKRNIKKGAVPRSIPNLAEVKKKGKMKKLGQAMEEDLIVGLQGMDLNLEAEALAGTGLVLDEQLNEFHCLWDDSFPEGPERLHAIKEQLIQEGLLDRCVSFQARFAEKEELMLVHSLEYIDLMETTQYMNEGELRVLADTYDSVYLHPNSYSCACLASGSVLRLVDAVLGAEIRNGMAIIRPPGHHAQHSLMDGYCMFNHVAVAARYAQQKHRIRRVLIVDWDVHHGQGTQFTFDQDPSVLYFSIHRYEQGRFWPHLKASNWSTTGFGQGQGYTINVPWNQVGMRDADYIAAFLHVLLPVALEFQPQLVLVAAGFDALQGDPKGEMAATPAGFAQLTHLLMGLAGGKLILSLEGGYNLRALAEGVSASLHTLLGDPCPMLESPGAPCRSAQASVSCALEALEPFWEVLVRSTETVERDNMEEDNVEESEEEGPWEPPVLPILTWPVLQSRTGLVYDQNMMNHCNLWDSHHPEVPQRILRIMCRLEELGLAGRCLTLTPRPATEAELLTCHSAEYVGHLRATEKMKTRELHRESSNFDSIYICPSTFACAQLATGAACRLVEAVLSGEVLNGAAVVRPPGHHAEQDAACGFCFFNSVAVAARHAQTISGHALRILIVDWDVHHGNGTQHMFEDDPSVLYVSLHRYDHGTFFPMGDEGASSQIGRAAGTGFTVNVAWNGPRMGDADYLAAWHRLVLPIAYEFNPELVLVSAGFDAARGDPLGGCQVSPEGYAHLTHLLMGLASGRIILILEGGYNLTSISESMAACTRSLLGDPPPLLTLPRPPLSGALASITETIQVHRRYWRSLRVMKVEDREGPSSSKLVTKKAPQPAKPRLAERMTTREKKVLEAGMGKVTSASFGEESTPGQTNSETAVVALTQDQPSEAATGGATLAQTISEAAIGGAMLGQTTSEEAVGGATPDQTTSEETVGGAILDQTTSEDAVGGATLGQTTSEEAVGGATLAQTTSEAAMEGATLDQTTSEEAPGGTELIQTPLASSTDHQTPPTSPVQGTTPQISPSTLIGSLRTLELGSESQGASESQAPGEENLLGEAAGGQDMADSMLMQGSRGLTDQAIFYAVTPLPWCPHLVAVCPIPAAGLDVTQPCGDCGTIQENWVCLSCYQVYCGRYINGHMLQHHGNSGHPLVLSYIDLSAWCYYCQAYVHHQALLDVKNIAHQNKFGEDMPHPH
Protocol: as §2, §3

| Compound | IC50 (MM1S) [nM] | IC50 (RPMI8226) [nM] | IC50 (MM1R) [nM] | HDAC IC50, HDAC-2 (result in words) (HDAC-2) | HDAC IC50, HDAC-3 (result in words) (HDAC-3; Bendamustine, unit not given) | HDAC IC50, HDAC-10 (result in words) (HDAC-10; HDAC-10, Bendamustine, unit not given) | HDAC IC50, HDAC-1 (result in words) (HDAC-1; Bendamustine, unit not given) | HDAC IC50, HDAC-8 (result in words) (HDAC-8; HDAC-8, Bendamustine, unit not given) | HDAC IC50, HDAC-6 (result in words) (HDAC-6; HDAC-6, Bendamustine, unit not given) | IC50 (HDAC-2) [nM] | IC50 (HDAC-3) [nM] | IC50 (HDAC-10) [nM] | IC50 (HDAC-1) [nM] | IC50 (HDAC-8) [nM] | IC50 (HDAC-6) [nM] |
| --- | --- | --- | --- | --- | --- | --- | --- | --- | --- | --- | --- | --- | --- | --- | --- |
| Cn1c(CCCC(=O)O)nc2cc(N(CCCl)CCCl)ccc21 [Bendamustine] | 119000 | 400000 | 100000 | No activity | No activity | No activity | No activity | No activity | No activity | – | – | – | – | – | – |
| Cn1c(CCCCCCC(=O)NO)nc2cc(N(CCCl)CCCl)ccc21 [CY190602] | 1600 | 4160 | 2660 | – | – | – | – | – | – | 9 | 25 | 72 | 17 | 107 | 6 |

From patent US9096627B2, “Hydroxamic acid derivatives” (Purdue Pharmaceutical Products L.P., priority 2009, dated 2015)
